Reference: patent publication US20260007644A1, “NIMODIPINE COMPOSITION FREE OF ETHANOL AND PHOSPHOLIPID FOR MOIST HEAT STERILIZATION AND METHOD FOR PREPARING SAME” (BEIJING DELIVERY PHARMACEUTICAL TECHNOLOGY CO., LTD, priority 2022, published 2026)

How the values were obtained:
[1] = Description / appearance of the concentrates (visual inspection); format: physicochemical; settings: 1.00 g active ingredient, HS15 45.00 g, propylene glycol 54.00 g, sterilized at 121° C. for 15 minutes
Description: The formation of solution upon dilution with 5% dextrose injection and the stability of the diluted solutions (the concentration of nimodipine is 0.1 mg/mL) were observed.
According to the Guidelines for the Stability Testing of Drug Substances and Preparations in Section 9001 of the General Notices, Pharmacopoeia of the People's Republic of China 2020, Volume IV, the concentrates prepared in Example 10 were tested at a temperature of 60° C. or under the light with an intensity of 5000 Lux, and sampled at the end of the 5th, 10th and 30th days to examine the specified items. • 1.
Method: visual inspection.

[2] = cited from earlier work

| Compound | formation of a clear and transparent solution in the system of HS15 and propylene glycol [1] | solubility in water [2] |
| --- | --- | --- |
| COc1cc([C@@H]2c3cc4c(cc3[C@@H](O[C@@H]3O[C@@H]5CO[C@@H](c6cccs6)O[C@H]5[C@H](O)[C@H]3O)[C@H]3COC(=O)[C@H]23)OCO4)cc(OC)c1O [teniposide] | failed to form clear and transparent solutions | – |
| ginsenoside | failed to form clear and transparent solutions | – |
| COCCOC(=O)C1=C(C)NC(C)=C(C(=O)OC(C)C)C1c1cccc([N+](=O)[O-])c1 (racemic) [Nimodipine, 1-methylethyl 2-methoxyethyl (±)-2,6-dimethyl-4-(3-nitrophenyl)-1,4-dihydropyridine-3,5-dicarboxylate] | – | insoluble in water |
| CC[C@@H]([C@H](C)O)n1ncn(-c2ccc(N3CCN(c4ccc(OC[C@@H]5CO[C@@](Cn6cncn6)(c6ccc(F)cc6F)C5)cc4)CC3)cc2)c1=O [posaconazole] | failed to form clear and transparent solutions | – |
| C=C1CC[C@@H]2[C@](C)(CO)[C@H](O)CC[C@@]2(C)[C@@H]1C/C=C1/C(=O)OC[C@H]1O [andrographolide] | failed to form clear and transparent solutions | – |
